Patent US12102659B2, “Methods for the prevention or treatment of heart failure” (Cornell University, priority 2009, dated 2024)
Square brackets hold non-standard residues; d marks the D form. Ends that are not written are not given here.

How the values were obtained:
mu-opioid receptor = mu-opioid receptor (Homo sapiens, UniProt P35372); experiment: mu-opioid receptor agonist activity (stated, no method); assay type: biochemical; conditions: stated in the description, no test described
[1] = system: several mammalian cell types; conditions: energy-independent manner; cited from earlier work

mu-opioid receptor, sequence (P35372 whole entry, species assumed): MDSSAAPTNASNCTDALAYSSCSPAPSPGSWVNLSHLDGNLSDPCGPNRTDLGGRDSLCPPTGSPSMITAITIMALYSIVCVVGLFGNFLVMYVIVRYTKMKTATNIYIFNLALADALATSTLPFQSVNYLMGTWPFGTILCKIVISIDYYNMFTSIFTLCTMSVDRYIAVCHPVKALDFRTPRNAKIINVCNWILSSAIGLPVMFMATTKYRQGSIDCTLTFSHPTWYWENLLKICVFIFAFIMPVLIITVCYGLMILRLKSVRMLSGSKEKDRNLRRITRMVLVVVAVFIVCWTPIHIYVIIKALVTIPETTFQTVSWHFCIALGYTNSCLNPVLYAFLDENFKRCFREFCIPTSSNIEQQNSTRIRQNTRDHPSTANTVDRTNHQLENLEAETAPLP

Substance | mu-opioid receptor agonist activity (mu-opioid receptor) | penetration of the plasma membrane [1]
Tyr-D-Arg-Phe-Lys-NH2 [SS-01] | has mu-opioid receptor agonist activity | –
F[dR]FK-NH2 [SS-20] | does not have mu-opioid receptor agonist activity | –
2′,6′-Dmt-D-Arg-Phe-Lys-NH2 [SS-02] | – | readily penetrates the plasma membrane
